Values joined by “and” are separate entries in the source; they are usually repeats but may differ in a detail not shown here. Identical values can stand only once.
What was measured:
human plasma proteins = assay: Binding to human plasma proteins; type: in vitro ADME; details: for Protein binding (%): human plasma, 37 °C, n = 2; for Binding rate to human plasma proteins: overall statement, incubation up to 120 min
Description: Binding to human plasma proteins was determined following this procedure: 10 µL of the ⁶⁸Ga-P15 with radioactivity of 45 kBq/100 µL was mixed with 190 µL of human plasma. The sample was then incubated at 37 °C. After 0, 30, 60 and 120 min 25 µL of the sample was collected, applied to the appropriate column and centrifuged at 2000 g for 2 minutes. The radioactivity of the samples was then measured using a gamma counter 2480 Wizard^2 (PerkinElmer, Waltham, MA, USA), and then the binding to plasma proteins was calculated using the following formula % plasma protein binding = (Aelution/Atotal)×100. The same procedure was applied when determining binding to plasma proteins of ⁶⁸Ga-P16, ⁶⁸Ga-P19, and ⁶⁸Ga-PSMA-617.

[1] = Stability in human plasma/serum (radiochemical purity by HPLC); type: in vitro ADME; details: for Stability in human serum (%): radiochemical purity, 37 °C, n = 1
Description: Quality control, i.e. radiochemical purity, of the ^68Ga-labelled PSMA inhibitors was evaluated by analytical high performance liquid chromatography (HPLC; Dionex UltiMate 3000, Thermo Scientific, Waltham, Massachusetts, USA) using the following equipment: ACE 3 C18 column; 150 × 3 mm, 3 μm (Advanced Chromatography Technologies Ltd, Aberdeen, UK), with gradient elution A: H2O/acetonitrile (ACN); B:0.1% trifluoroacetic acid (TFA)/H2O: 0–3 min, 0% ACN; 3–10 min, 0 − 50% ACN; 10–13 min, 50 − 80% ACN; 13–15 min, 80–0% ACN, for 15 min at a flow rate of 1 mL/min. Radiometric detection was performed using a GABI Star radiodetector (Raytest GmbH, Straubenhardt, Germany) and for chromatogram quantification Chromatography Data System (CDS) - Chromeleon software (Thermo Scientific, USA) was used. The actual sample injection was performed using a Hamilton microinjector (Hamilton, USA).
Plasma stability was determined as follows. To 100 µL of ⁶⁸Ga-P15 with radioactivity of 45 kBq/100 µL, 400 µL of human plasma was added and mixed. The mixture was incubated at 37 °C and 100 µL samples were taken at 30, 60 and 120 min. These samples were then mixed with 200 µL of acetonitrile and placed on a shaker for 1 min. The sample was then centrifuged at 15,000 rpm for 3 min. After centrifugation, the supernatant was collected for radiochemical purity analysis by HPLC. The same procedure was applied when determining plasma stability of ⁶⁸Ga-P16, ⁶⁸Ga-P19, and ⁶⁸Ga-PSMA-617.

O=C([O-])CN1CCN(CC(=O)[O-])CCN(CC(=O)N[C@H]2CC[C@H](NC(=O)[C@@H](Cc3ccc4ccccc4c3)NC(=O)CC[C@H](NC(=O)N[C@@H](CCC(=O)O)C(=O)O)C(=O)O)CC2)CCN(CC(=O)[O-])CC1.[68Ga+3] [[^68Ga]Ga-P15]
Protein binding (%) (human plasma proteins; incubation time 0 min): 26.7% | Protein binding (%) (human plasma proteins; incubation time 30 min): 27.0% | Protein binding (%) (human plasma proteins; incubation time 60 min): 29% and 29.4% | Protein binding (%) (human plasma proteins; incubation time 120 min): 40% and 39.9% | Binding rate to human plasma proteins (human plasma proteins): ≤ 40% | Stability in human serum (%) ([1]; incubation time 30 min): 98.9% | Stability in human serum (%) ([1]; incubation time 60 min): 99.8% | Stability in human serum (%) ([1]; incubation time 120 min): 99.4%

O=C([O-])CN1CCN(CC(=O)[O-])CCN(CC(=O)N[C@H]2CC[C@H](NC(=O)[C@H](Cc3ccc4ccccc4c3)NC(=O)CC[C@H](NC(=O)N[C@@H](CCC(=O)O)C(=O)O)C(=O)O)CC2)CCN(CC(=O)[O-])CC1.[68Ga+3] [[^68Ga]Ga-P16]
Protein binding (%) (human plasma proteins; incubation time 0 min): 10% and 10.2% | Protein binding (%) (human plasma proteins; incubation time 30 min): 10.9% | Protein binding (%) (human plasma proteins; incubation time 60 min): 10.8% | Protein binding (%) (human plasma proteins; incubation time 120 min): 13% and 13.4% | Binding rate to human plasma proteins (human plasma proteins): ≤ 40% | Radiochemical purity in human blood serum/plasma ([1]; 37 °C, 30, 60 and 120 min): above 97% | Stability in human serum (%) ([1]; incubation time 30 min): 98.8% | Stability in human serum (%) ([1]; incubation time 60 min): 98.3% | Stability in human serum (%) ([1]; incubation time 120 min): 97.3%

O=C([O-])CN1CCN(CC(=O)[O-])CCN(CC(=O)NCc2ccc(C(=O)N[C@H](C(=O)NCCCC[C@H](NC(=O)N[C@@H](CCC(=O)O)C(=O)O)C(=O)O)C(c3ccccc3)c3ccccc3)cc2)CCN(CC(=O)[O-])CC1.[68Ga+3] [[^68Ga]Ga-P19]
Protein binding (%) (human plasma proteins; incubation time 0 min): 56.6% | Protein binding (%) (human plasma proteins; incubation time 30 min): 59% and 58.8% | Protein binding (%) (human plasma proteins; incubation time 60 min): 58% and 57.7% | Protein binding (%) (human plasma proteins; incubation time 120 min): 58% and 58.2% | Stability in human serum (%) ([1]; incubation time 30 min): 99.3% | Stability in human serum (%) ([1]; incubation time 60 min): 99.8% | Stability in human serum (%) ([1]; incubation time 120 min): 99.9%

Reference: publication PMC12474757, “Paving the way for future PSMA inhibitors: insights from comparative preclinical evaluations of structure modifications” (EJNMMI Radiopharmacy and Chemistry, 2025)
